Measured values taken from publication PMC8342005, “A two-step resin based approach to reveal survivin-selective fluorescent probes” (RSC Chemical Biology, 2020).

Key:
survivin [1] = molecular target: T1, survivin (Homo sapiens, UniProt O15392); assay: fluorescence intensity titration of the intrinsically fluorescent ligand with survivin; also CONA bead imaging and affinity resin capture; format: binding
T1 construct: gene BIRC5; His6-tagged full length survivin

survivin [2] = molecular target: T1, survivin; assay: fluorescence intensity titration of the intrinsically fluorescent ligand with survivin ([…] fit); also CONA bead imaging, affinity resin capture, native PAGE; format: binding

T1 sequence (O15392 whole entry): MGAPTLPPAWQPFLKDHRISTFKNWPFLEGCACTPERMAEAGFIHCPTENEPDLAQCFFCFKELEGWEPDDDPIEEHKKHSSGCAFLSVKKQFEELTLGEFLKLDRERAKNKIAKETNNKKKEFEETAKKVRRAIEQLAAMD

Question: Which Kd (survivin [1]) does the source give for COc1cc2[nH]c1/C=C1/C=CC(=N1)CCCCCCCCCc1ccc-2[nH]1 [compound 1, cyclononylprodigiosin] here?
Answer: 149 ± 8.3 µM

Question: For CCCCCC1=C/C(=C/c2[nH]c(-c3ccc[nH]3)cc2OC)N=C1C [compound 2, prodigiosin], which Kd (survivin [2]) is on record?
Answer: 11.5 ± 3.1 µM
